According to US4513001A, “β-Adrenergic 1-[1-benzimidazolyl]-N-[2-(4-hydroxy-3-methoxy-phenyl)-2-hydroxy-ethyl]- 3-amino butane and salts and hydrates thereof” (priority 1982, dated 1985):
“Also recorded” adds a separate entry of the source. Like-named read-outs stand apart in the source and are kept apart here.

Tests used:
histamine bronchospasm [1] = test: Bronchodilator activity in vivo, anesthetized guinea pig, intraduodenal (inhibition of histamine bronchospasm, KONZETT)
Experimental: (§1) 1.2.1 In the anesthesized guinea pig (method of KONZETT. Arch. Exp. Pathol. Pharmakol. 1940 195 71-74)
(§2) A bronchospasm was caused by intravenous histamine injection. The bronchodilator activity was shown by partial or total inhibition of this spasm.
The product studied was administered intravenously or intraduodenaly and histamine injected then at different times to follow the delay in appearance and the duration of the inhibiting effect of the treatment.
The results below are the averages of the values obtained in 10 animals.

guinea pig trachea = test: β-stimulant specificity: guinea pig trachea before and after propranolol; conditions: for EC50: Cavia porcellus, 6 preparations
Excerpt: respiratory (guinea pig trachea, in vitro)
cardiovascular (heart rate of the dog, in vivo) by the antagonistic effect of a β-blocking product.

[2] = tested on: heart rate and mean aortic pressure; test: Heart rate and mean aortic pressure of the anesthetised dog, intraduodenal; format: in vivo; conditions: for Heart rate, maximum cumulative effect / Average aortic pressure, maximum cumulative effect: intraduodenal
Experimental: 3.1.1. Activity on the heart rate and on the mean aortic pressure of the anesthetisied dog
The activity of the compound A and of Salbutamol was studied on 2 batches of 3 dogs per product: one in spontaneous respiration, the other in artificial respiration; the two substances were administered intraduodenally at 3 doses: 0.008-0.025 and 0.08 mg/kg.

histamine bronchospasm [3] = test: Bronchodilator activity in vivo, anesthetized dog, intraduodenal (intratracheal pressure, histamine bronchospasm)
Experimental: 1.2.2. In the anesthesized dog (recording of the intratracheal pressure)
A bronchospasm was caused by intravenous injection and histamine. The bronchodilator activity was shown by partial or total inhibition of this spasm.
The products studied were administered intraduodenally and the histamine injected then at various times to follow the effect of the treatment.
The results borne in the table below are the averages of the values obtained in 3 animals for each product.

rat uterus preparation = test: Uterus relaxing activity in vitro; conditions: for EC50: Rattus norvegicus, 7 preparations, read-out: CE50 (effective concentration 50, inhibiting by 50% the control contraction)
Excerpt: This activity was investigated on a rat uterus preparation, put into estrus by cutaneous injection of oestradiol benzoate. The uterine horns were kept alive in a RINGER-LOCKE solution, modified by GADDUM and VOGT.
Their activity is expressed by the value of the molar CE50 (effective concentration 50, inhibiting by 50% the control contraction induced by the contracting agent).
Each CE50 indicated below was obtained from the results of 7 preparations.

[4] = tested on: isolated trachea preparation of the guinea pig; test: Relaxant activity on isolated tracheal muscle in vitro
Experimental: This activity was studied on an isolated trachea preparation of the guinea pig (chain of tracheal rings, according to CASTILLO and BEER. Journ. Pharmacol. Exp. Ther. 1947 90 104-109), kept alive in a KREBS solution. The effect of cumulative doses on the pressure of the preparation was recorded.
The activity of the substance was expressed by the value of the molar CD50 (decontracting concentration 50=concentration giving 50% of maximum relaxation), of which the negative log. is the value pD2, and by the intrinsic activity corresponding to maximum effect.
These values were determined in parallel for the compound A and Salbutamol, on 6 preparations for each.

histamine bronchospasm [5] = test: Bronchodilator activity in vivo, anesthetized guinea pig, intravenous (inhibition of histamine bronchospasm, KONZETT); conditions: for % inhibition in time: i.v.
Experimental: as §1, §2
The product studied was administered intravenously or intraduodenaly and histamine injected then at different times to follow the delay in appearance and the duration of the inhibiting effect of the treatment. […]

[6] = tested on: isolated right atrium preparation of the guinea pig; test: Activity on the heart rate in vitro, isolated right atrium; conditions: for Heart rate, maximum: basal 209 (Compound A), 202 (Salbutamol); for Tachycardiac activity in vitro (comparison with Salbutamol): sulphate, dihydrate
Experimental: This action was studied on an isolated right atrium preparation of the guinea pig kept alive in a RINGER solution. The effect of cumulative doses on the heart rate was recorded. The results below are the averages of 6 preparations of the compound A, of 4 for Salbutamol

COc1cc(C(O)CNC(C)CCn2cnc3ccccc32)ccc1O (centres unmarked) [Compound A, 1-[1-benzimidazolyl]-N-[2-(4-hydroxy-3-methoxy-phenyl)2-hydroxy-ethyl]3-amino butane basic sulphate, dihydrate]
% inhibition in time (histamine bronchospasm [1]; 0.25 mg base/kg, 1 min): 11% | % inhibition in time (histamine bronchospasm [1]; 0.25 mg base/kg, 5 min): 27% | % inhibition in time (histamine bronchospasm [1]; 0.25 mg base/kg, 15 min): 26% | % inhibition in time (histamine bronchospasm [1]; 0.25 mg base/kg, 30 min): 26% | % inhibition in time (histamine bronchospasm [1]; 0.25 mg base/kg, 45 min): 19% | % inhibition in time (histamine bronchospasm [1]; 0.25 mg base/kg, 60 min): 13% | % inhibition in time (histamine bronchospasm [1]; 0.25 mg base/kg, 90 min): 9% | % inhibition in time (histamine bronchospasm [1]; 0.8 mg base/kg, 1 min): 16% | % inhibition in time (histamine bronchospasm [1]; 0.8 mg base/kg, 5 min): 60% | % inhibition in time (histamine bronchospasm [1]; 0.8 mg base/kg, 15 min): 61% | % inhibition in time (histamine bronchospasm [1]; 0.8 mg base/kg, 30 min): 44% | % inhibition in time (histamine bronchospasm [1]; 0.8 mg base/kg, 45 min): 29% | % inhibition in time (histamine bronchospasm [1]; 0.8 mg base/kg, 60 min): 23% | % inhibition in time (histamine bronchospasm [1]; 0.8 mg base/kg, 90 min): 21% | % inhibition in time (histamine bronchospasm [1]; 2.5 mg base/kg, 1 min): 20% | % inhibition in time (histamine bronchospasm [1]; 2.5 mg base/kg, 5 min): 73% | % inhibition in time (histamine bronchospasm [1]; 2.5 mg base/kg, 15 min): 65% | % inhibition in time (histamine bronchospasm [1]; 2.5 mg base/kg, 30 min): 53% | % inhibition in time (histamine bronchospasm [1]; 2.5 mg base/kg, 45 min): 44% | % inhibition in time (histamine bronchospasm [1]; 2.5 mg base/kg, 60 min): 39% | % inhibition in time (histamine bronchospasm [1]; 2.5 mg base/kg, 90 min): 34% | % inhibition in time (histamine bronchospasm [1]; 2.5 mg base/kg, 120 min): 30% | % inhibition in time (histamine bronchospasm [1]; 8 mg base/kg, 1 min): 51% | % inhibition in time (histamine bronchospasm [1]; 8 mg base/kg, 5 min): 82% | % inhibition in time (histamine bronchospasm [1]; 8 mg base/kg, 15 min): 82% | % inhibition in time (histamine bronchospasm [1]; 8 mg base/kg, 30 min): 71% | % inhibition in time (histamine bronchospasm [1]; 8 mg base/kg, 45 min): 67% | % inhibition in time (histamine bronchospasm [1]; 8 mg base/kg, 60 min): 65% | % inhibition in time (histamine bronchospasm [1]; 8 mg base/kg, 90 min): 59% | % inhibition in time (histamine bronchospasm [1]; 8 mg base/kg, 120 min (n = 9 compound A, n = 8 Salbutamol)): 55% | minimal effective dose (histamine bronchospasm [1]; Cavia porcellus, read-out: Threshold active dose): 0.25 mg/kg | Bronchodilator activity (comparison, in words) (histamine bronchospasm [1]; sulphate, dihydrate): more lasting at 8 mg/kg; also recorded: more active than Salbutamol | EC50 (guinea pig trachea; read-out: CD50 before propranolol): 0.071 µM | EC50 (guinea pig trachea; propranolol 1.7×10^-8 mol, read-out: CD50 after propranolol): 0.25 µM | Ratio of CD50 (guinea pig trachea; after / before propranolol): 3.5 | Tachycardiac and hypotensive effect (comparison with Salbutamol) ([2]; anesthetised dog, in words): a little less tachycardiac and hypotensive than Salbutamol | Heart rate, maximum cumulative effect ([2]; artificial respiration, 10 min after 0.08 mg/kg): +20 cpm | Average aortic pressure, maximum cumulative effect ([2]; artificial respiration, 75 min after 0.08 mg/kg): -26 mmHg | Heart rate, maximum cumulative effect ([2]; spontaneous respiration, 15 min after 0.08 mg/kg): +17 cpm | Average aortic pressure, maximum cumulative effect ([2]; spontaneous respiration, 20 min after 0.08 mg/kg): -15 mmHg | % inhibition in time (histamine bronchospasm [3]; 0.025 mg base/kg, 5 min): 48% | % inhibition in time (histamine bronchospasm [3]; 0.025 mg base/kg, 20 min): 60% | % inhibition in time (histamine bronchospasm [3]; 0.025 mg base/kg, 35 min): 67% | % inhibition in time (histamine bronchospasm [3]; 0.025 mg base/kg, 60 min): 63% | % inhibition in time (histamine bronchospasm [3]; 0.025 mg base/kg, 90 min): 62% | % inhibition in time (histamine bronchospasm [3]; 0.08 mg base/kg, 5 min): 70% | % inhibition in time (histamine bronchospasm [3]; 0.08 mg base/kg, 20 min): 78% | % inhibition in time (histamine bronchospasm [3]; 0.08 mg base/kg, 35 min): 76% | % inhibition in time (histamine bronchospasm [3]; 0.08 mg base/kg, 60 min): 70% | % inhibition in time (histamine bronchospasm [3]; 0.08 mg base/kg, 90 min): 60% | Bronchodilator activity (comparison, in words) (histamine bronchospasm [3]; sulphate, dihydrate): acted more rapidly (inhibition already strong in 5 minutes); also recorded: activity was higher than or equal to that of Salbutamol, is characterised by its great speed of action | EC50 (rat uterus preparation; contracting agent acetylcholine): 0.00067 µM | EC50 (rat uterus preparation; contracting agent serotonine): 0.0024 µM | Activity on the uterus (comparison with Salbutamol) (rat uterus preparation; in vitro, in words): of the same order of that of Salbutamol | Maximum response (decontraction) ([4]; 6 preparations): 390 mg | Emax ([4]; Cavia porcellus, 6 preparations, Salbutamol 1.00, read-out: Intrinsic activity): 109% | EC50 ([4]; Cavia porcellus, 6 preparations, read-out: CD50 (decontracting concentration 50, concentration giving 50% of maximum relaxation)): 0.071 µM | EC50 ([4]; Cavia porcellus, negative log of molar CD50, 6 preparations, read-out: pD2 (converted)): 0.0708 µM | Activity on the tracheal muscle (comparison with Salbutamol) ([4]; in vitro, in words): very close to that of Salbutamol | % inhibition in time (histamine bronchospasm [5]; 0.08 μg base/kg, 1 min): 1% | % inhibition in time (histamine bronchospasm [5]; 0.08 μg base/kg, 5 min): 1% | % inhibition in time (histamine bronchospasm [5]; 0.08 μg base/kg, 10 min): 0% | % inhibition in time (histamine bronchospasm [5]; 0.08 μg base/kg, 15 min): 0% | % inhibition in time (histamine bronchospasm [5]; 0.25 μg base/kg, 1 min): 9% | % inhibition in time (histamine bronchospasm [5]; 0.25 μg base/kg, 5 min): 1% | % inhibition in time (histamine bronchospasm [5]; 0.25 μg base/kg, 10 min): 0% | % inhibition in time (histamine bronchospasm [5]; 0.25 μg base/kg, 15 min): 0% | % inhibition in time (histamine bronchospasm [5]; 0.8 μg base/kg, 1 min): 36% | % inhibition in time (histamine bronchospasm [5]; 0.8 μg base/kg, 5 min): 3% | % inhibition in time (histamine bronchospasm [5]; 0.8 μg base/kg, 10 min): 2% | % inhibition in time (histamine bronchospasm [5]; 0.8 μg base/kg, 15 min): 3% | % inhibition in time (histamine bronchospasm [5]; 2.5 μg base/kg, 1 min): 66% | % inhibition in time (histamine bronchospasm [5]; 2.5 μg base/kg, 5 min): 13% | % inhibition in time (histamine bronchospasm [5]; 2.5 μg base/kg, 10 min): 8% | % inhibition in time (histamine bronchospasm [5]; 2.5 μg base/kg, 15 min): 8% | % inhibition in time (histamine bronchospasm [5]; 8 μg base/kg, 1 min): 73% | % inhibition in time (histamine bronchospasm [5]; 8 μg base/kg, 5 min): 17% | % inhibition in time (histamine bronchospasm [5]; 8 μg base/kg, 10 min): 12% | % inhibition in time (histamine bronchospasm [5]; 8 μg base/kg, 15 min): 8% | % inhibition in time (histamine bronchospasm [5]; 25 μg base/kg, 1 min): 92% | % inhibition in time (histamine bronchospasm [5]; 25 μg base/kg, 5 min): 52% | % inhibition in time (histamine bronchospasm [5]; 25 μg base/kg, 10 min): 38% | % inhibition in time (histamine bronchospasm [5]; 25 μg base/kg, 15 min): 28% | % inhibition in time (histamine bronchospasm [5]; 84 μg base/kg, 1 min): 92% | % inhibition in time (histamine bronchospasm [5]; 84 μg base/kg, 5 min): 80% | % inhibition in time (histamine bronchospasm [5]; 84 μg base/kg, 10 min): 70% | % inhibition in time (histamine bronchospasm [5]; 84 μg base/kg, 15 min): 63% | % inhibition in time (histamine bronchospasm [5]; 84 μg base/kg, 30 min): 51% | % inhibition in time (histamine bronchospasm [5]; 84 μg base/kg, 45 min): 36% | % inhibition in time (histamine bronchospasm [5]; 84 μg base/kg, 60 min): 21% | Bronchodilator activity (comparison with Salbutamol) (histamine bronchospasm [5]; intravenous, in words): activity of the same order, although very slightly less for compound A at low doses; at the highest dose, the effect is intense and lasting, the compound A had an activity at least equal to that of Salbutamol | Heart rate, increase ([6]; 1 × 10^-5 mol (maxi for Salbutamol)): +47 beats per min. | Heart rate, maximum ([6]; 1 × 10^-5 mol): 256 beats per min. | Heart rate, increase ([6]; 1 × 10^-6 mol (maxi for Compound A)): +49 beats per min. | Heart rate, maximum ([6]; 1 × 10^-6 mol): 258 beats per min. | Heart rate, increase ([6]; 1 × 10^-7 mol): +40 beats per min. | Heart rate, maximum ([6]; 1 × 10^-7 mol): 249 beats per min. | Emax ([6]; Cavia porcellus, same preparation, at the start of the test, read-out: Maximum as % of the maximum tachycardia obtained with isoprenaline): < 50% | CE50 and pD2 on heart rate (not calculable) ([6]; in vitro, in words): this low activity prevents calculation of a CE50 and a pD2 | Tachycardiac activity in vitro (comparison with Salbutamol) ([6]; in words, listed as Compound a): only a partial effect, very much less than that of Salbutamol | Tachycardiac activity in vitro (comparison with Salbutamol) ([6]; in words): increases the rate but the maximum effect is very much less than that of Salbutamol
